# “And” between values parts separate entries of the source, which are not always exact repeats. Identical values can stand only once.
# How the values were obtained:
# Assay type in all cases: binding
# [1] = target: T1, HEPN domain of sacsin (GST-HEPN) (Homo sapiens, UniProt Q9NZJ4); test: FP competition assay (displacement of F12-ATP from GST-HEPN)
# T1 construct: The HEPN domain (residues 4441–4579) was purified as in Kozlov et al; made in house; host or cells: E. coli BL21
# T1 sequence (Q9NZJ4 4441-4579): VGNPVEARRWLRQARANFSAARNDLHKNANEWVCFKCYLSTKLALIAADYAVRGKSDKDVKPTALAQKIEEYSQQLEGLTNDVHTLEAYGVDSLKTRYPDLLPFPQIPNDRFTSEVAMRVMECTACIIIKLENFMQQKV
# Description: […] The probe concentration was chosen to be the minimum concentration required to generate a sigmoidal binding curve. […] Next, a serial dilution of the competitor compounds (nucleotides and nucleotide analogs) starting at 10 mM were added. The fluorescence polarization signal in each well was measured on a SpectraMax M5e Microplate Reader.
# [2] = target: T2, 15N-HEPN (sacsin HEPN domain) (Homo sapiens, UniProt Q9NZJ4); test: 1H-15N HSQC NMR titration; conditions: 100-400 μM 15N-HEPN, 20 mM Bis-tris pH 6.50, 70 mM NaCl, 303 K
# T2 construct: The HEPN domain (residues 4441–4579) was purified as in Kozlov et al; GST (N, cleaved yes); made in house; host or cells: E. coli BL21 (M9 minimal medium with 15NH4Cl)
# T2 sequence (Q9NZJ4 4441-4579): T1 sequence (Q9NZJ4 4441-4579)
# Description: Between 100 μM and 400 μM ^15N-HEPN were used for NMR titration experiments. Heteronuclear single quantum correlation (HSQC) spectra were acquired in 20 mM Bis-tris pH 6.50 and 70 mM NaCl at 303 K using Varian 800 MHz or Bruker 600 MHz NMR spectrometers. The data were processed by NMRPipe. NMR spectra were then generated and analyzed by NMRView. The 2D HSQC spectra were overlaid with previously assigned spectrum of HEPN. The combined chemical shift perturbations in the ^1H and ^15N dimensions of each peak, calculated as (ΔδH ^2 + (0.2 × ΔδN)^2)^0.5, were plotted against the residue number.
# [3] = target: T1, HEPN domain of sacsin (GST-HEPN); test: FP titration assay (fluorescent ATP probe vs GST-HEPN); conditions: for Kd: 20 mM Bis-tris pH 6.50, 100 mM NaCl
# Description: N-methylanthraniloyl 8[(4-amino)butyl]-amino-ATP (MABA-ATP) and fluorescein-12-ATP (F12-ATP) were purchased from Jena Bioscience and PerkinElmer, respectively. The excitation and emission wavelengths of MABA-ATP were reported to be 335 nm and 440 nm, and those of F12-ATP were reported to be 496 nm and 517 nm by the commercial suppliers. The optimal excitation and emission wavelengths were determined under FP assay conditions using 0.2 μM MABA-ATP and 3.3 nM F12-ATP in 100 mM NaCl, 20 mM Bis-tris, pH 6.5.
# (§1) A fixed concentration of the probe (0.5 μM MABA-ATP or 5 nM F12-ATP) was put in each well followed by a serial dilution of GST-HEPN starting at 10 μM. The assay was conducted in 20 mM Bis-tris pH 6.50 and 100 mM NaCl and the final volume in each well was 100 μl. The total fluorescence and fluorescence polarization signals of each well were recorded on a SpectraMax M5e Microplate Reader at the optimal excitation and emission wavelengths of the probes. A titration curve was generated by plotting the fluorescence polarization signals as milli-polarization units (mP) against a log scale of GST-HEPN concentration (μM).
# GST = GST (Schistosoma japonicum, UniProt P08515); test: GST control FP titration; conditions: 0.5 μM MABA-ATP or 5 nM F12-ATP titrated against GST
# Chain of GST (P08515 whole entry): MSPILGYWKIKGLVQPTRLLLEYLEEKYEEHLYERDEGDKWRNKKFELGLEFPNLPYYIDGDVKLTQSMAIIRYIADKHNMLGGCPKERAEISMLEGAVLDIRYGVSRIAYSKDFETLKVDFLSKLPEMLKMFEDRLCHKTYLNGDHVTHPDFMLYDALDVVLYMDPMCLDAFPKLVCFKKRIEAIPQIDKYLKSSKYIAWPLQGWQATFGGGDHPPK
# Description: as §1
# Supplementary file pone.0137298.s002.tif: S2 Fig GST control titration. 0.5 μM MABA-ATP and 5 nM F12-ATP were titrated against various concentrations of GST to verify whether GST contributes to the observed FP signal in the presence of GST-HEPN. […] (TIF) Click here for additional data file.
# [4] = 5 nM F12-ATP and 120 nM GST-HEPN, read-out: affinity for GST-HEPN estimated from FP competition curve, Kd
# [5] = HTS hit confirmation, 5 nM F12-ATP and 200 nM GST-HEPN, read-out: Binding Affinity for HEPN
Compound,"Kd [1, 4]",binding to HEPN observed by NMR (chemical shift perturbations) [2],further results
"Nc1nc2c(ncn2[C@@H]2O[C@H](COP(=O)(O)OP(=O)(O)OP(=O)(O)O)[C@@H](O)[C@H]2O)c(=O)[nH]1 [GTP, guanosine 5´-triphosphate]",0.81 µM,binds to HEPN at its dimerization surface,fold higher affinity relative to ATP [1]: approximately 6 fold
"Nc1nc2c(ncn2[C@@H]2O[C@H](COP(=O)(O)OP(=O)(O)OP(=O)(O)OP(=O)(O)O)[C@@H](O)[C@H]2O)c(=O)[nH]1 [G-tetra-P, guanosine 5´-tetraphosphate]",0.47 µM,Changes in chemical shifts were observed for most GTP-binding residues,fold higher affinity for HEPN than GTP [1]: about two-fold
O=C(O)CN(CCN(CC(=O)O)CC(=O)O)CC(=O)O [EDTA],~510 µM and 510 µM,interacts with GTP- and malonate ion-binding site,fold weaker affinity than GTP [1]: ~ 500 fold
fluorescein-12-ATP [F12-ATP],–,interacts with all HEPN residues involved in GTP-binding,"Kd ([3]; 5 nM F12-ATP titrated against GST-HEPN, read-out: binding affinity of the probe estimated from the titration curve (KD1)): 0.078 µM and ~0.078 µM; fold decrease in affinity upon the addition of MgCl2 ([3]; F12-ATP vs GST-HEPN titration in the presence of 1 mM MgCl2 compared to without MgCl2): 10 fold; fold higher affinity relative to ATP [1]: 65 fold; binding of probe to GST alone (GST): did not show binding"
"O=P(O)(O)OC1C(OP(=O)(O)O)C(OP(=O)(O)O)C(OP(=O)(O)O)C(OP(=O)(O)O)C1OP(=O)(O)O (stereo not drawn) [IP6, phytic acid/myo-inositol hexakis(dihydrogen phosphate)]",8.46 µM,–,–
"Nc1ncnc2c1ncn2C1OC(COP(=O)(O)OP(=O)(O)OCC2OC(O)C(O)C2O)C(O)C1O (stereo not drawn) [ADP-ribose, adenosine 5´-diphosphoribose]",205 µM,–,–
O=C(OCCCl)Oc1c(Br)cc2sc(=O)oc2c1Br [AG205],–,–,"Kd [1, 5]: 9.4 µM"
O=c1c(C(c2ccc3c(c2)OCO3)c2c(O)nc3n(c2=O)CCS3)c(O)nc2n1CCS2 [AN670],–,Binding was observed by NMR,"fold higher affinity than the other two HTS hits AK968 and AN652 [1]: two- to three-fold; Kd [1, 5]: 1.1 µM"
"Nc1ncnc2c1ncn2[C@@H]1O[C@H](COP(=O)(O)OP(=O)(O)OP(=O)(O)OC[C@H]2O[C@@H](n3cnc4c(N)ncnc43)[C@H](O)[C@@H]2O)[C@@H](O)[C@H]1O [Ap3A, p1, p3-di(adenosine-5´) triphosphate]",51.2 µM,–,–
"Nc1ncnc2c1ncn2[C@@H]1O[C@H](COP(=O)(O)OP(=O)(O)O)[C@@H](O)[C@H]1O [ADP, adenosine 5´-diphosphate]",19.2 µM,–,–
Cc1ccccc1NS(=O)(=O)c1ccc(NC(=O)c2n[nH]c([N+](=O)[O-])c2Br)cc1 [AK968],–,Binding was observed by NMR,"Kd [1, 5]: 2.1 µM"
"CC(C)(COP(=O)(O)OP(=O)(O)OC[C@H]1O[C@@H](n2cnc3c(N)ncnc32)[C@H](O)[C@@H]1OP(=O)(O)O)[C@@H](O)C(=O)NCCC(=O)NCCS [CoA, coenzyme A]",5.2 µM,–,–
"Nc1nc2c(ncn2[C@@H]2O[C@H](COP(=O)(O)OP(=O)(O)O)[C@@H](O)[C@H]2O)c(=O)[nH]1 [GDP, guanosine 5´-diphosphate]",1.23 µM,–,–
O=C(Nc1cccc2c(=O)[nH][nH]c(=O)c12)c1ccc(=O)oc1 [AN652],–,Binding was observed by NMR,"Kd [1, 5]: 2.8 µM"
"Nc1ncnc2c1ncn2[C@@H]1O[C@H](COP(=O)(O)OP(=O)(O)OP(=O)(O)OP(=O)(O)OC[C@H]2O[C@@H](n3cnc4c(N)ncnc43)[C@H](O)[C@@H]2O)[C@@H](O)[C@H]1O [Ap4A, p1,-p4-di(adenosine-5´) tetraphosphate]",20.5 µM,–,–
"Nc1ncnc2c1ncn2[C@@H]1O[C@H](COP(=O)(O)O)[C@@H](O)[C@H]1O [AMP, adenosine 5´-monophosphate]",102 µM,–,–
"Nc1nc2c(ncn2[C@@H]2O[C@H](COP(=O)(O)OP(=O)(O)OP(=O)(O)OP(=O)(O)OC[C@H]3O[C@@H](n4cnc5c(=O)[nH]c(N)nc54)[C@H](O)[C@@H]3O)[C@@H](O)[C@H]2O)c(=O)[nH]1 [Gp4G, p1, p4-di(guanosine-5´) tetraphosphate]",1.23 µM,–,–
"CNc1ccccc1C(=O)NCCCCNc1nc2c(N)ncnc2n1[C@@H]1O[C@H](COP(=O)(O)OP(=O)(O)OP(=O)(O)O)[C@@H](O)[C@H]1O [MABA-ATP, N-methylanthraniloyl 8[(4-amino)butyl]-amino-ATP]",–,–,"Kd ([3]; 0.5 μM MABA-ATP titrated against GST-HEPN, read-out: binding affinity of the probe estimated from the titration curve): ~3 µM and 3 µM; binding of probe to GST alone (GST): did not show binding"

# Reference: article PMC4569058, “High-Throughput Screening for Ligands of the HEPN Domain of Sacsin” (PLoS ONE, 2015)
